According to patent EP4417602A1, “SUBSTITUTED PYRAZOLE CARBOXAMIDES, SALTS THEREOF AND THEIR USE AS HERBICIDALLY ACTIVE SUBSTANCES” (Bayer AG, priority 2023, dated 2024):

How the values were obtained:
POAAN [1] = experiment: B. Herbicidal post-emergence action on harmful plants (Tables B); format: in vivo, Poa annua; conditions: application rate 1280 g/ha; Table B7a
Summary of the method: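 Activity was scored visually as % damage (100% = dead, 0% = like untreated) about 3 weeks after treatment. Plants at the one-leaf stage, 2-3 weeks old, were sprayed with WP/EC formulations plus 0.5% additive (600 L/ha water, up to 1280 g/ha). Plants were grown in sandy loam in a greenhouse.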

ECHCG [2] = experiment: A. Herbicidal pre-emergence action on harmful plants (Tables A); format: in vivo, Echinochloa crus-galli; conditions: visual grading after ca. 3 weeks vs untreated controls, 100% = plants have died off, 0% = as control plants
Summary of the method: (§1)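 Greenhouse pre-emergence test: compound applied to the soil surface at 1280 g/ha or below, and herbicidal effect rated visually at ca. 3 weeks on a 0–100% scale against untreated plants.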

STEME = experiment: as above; format: in vivo, Stellaria media; conditions: visual grading after ca. 3 weeks vs untreated controls, 100% = plants have died off, 0% = as control plants
Summary of the method: as §1

LOLRI = experiment: as above; format: in vivo, Lolium rigidum; conditions: visual grading after ca. 3 weeks vs untreated controls, 100% = plants have died off, 0% = as control plants
Summary of the method: as §1

POAAN [3] = experiment: as above; format: in vivo, Poa annua
Summary of the method: as §1

MATIN [4] = experiment: as above; format: in vivo, Matricaria inodora; conditions: visual grading after ca. 3 weeks vs untreated controls, 100% = plants have died off, 0% = as control plants
Summary of the method: as §1

DIGSA [5] = experiment: as above; format: in vivo, Digitaria sanguinalis
Summary of the method: as §1

SETVI [6] = experiment: as above; format: in vivo, Setaria viridis; conditions: visual grading after ca. 3 weeks vs untreated controls, 100% = plants have died off, 0% = as control plants
Summary of the method: as §1

SETVI [7] = experiment: B. Herbicidal post-emergence action on harmful plants (Tables B); format: in vivo, Setaria viridis; conditions: application rate 1280 g/ha; Table B5
Protocol: (§2) Seeds of mono- and dicotyledonous weed plants were placed in plastic pots in sandy loam soil (doubly sown with in each case one species of mono- or dicotyledonous weed plants per pot), covered with soil and cultivated in a greenhouse under controlled growth conditions. 2 to 3 weeks after sowing, the test plants were treated at the one-leaf stage. The compounds of the invention, formulated in the form of wettable powders (WP) or as emulsion concentrates (EC), were applied onto the green parts of the plants as aqueous suspension or emulsion with addition of 0.5% additive at a water application rate of 600 liters per hectare (converted). After the test plants had been kept in the greenhouse under optimum growth conditions for about 3 weeks, the activity of the preparations was rated visually in comparison to untreated controls. For example, 100% activity = the plants have died, 0% activity = like control plants. Tables B1 to B12, below, show the effects of selected compounds of the general formula (I) according to table 1 on various harmful plants and an application rate corresponding to 1280 g/ha or below obtained by the experimental procedure mentioned above. Table B1a: post-emergence activity at 1280g/ha against ABUTH in %

ECHCG [8] = experiment: as above; format: in vivo, Echinochloa crus-galli; conditions: application rate 1280 g/ha; Table B2a
Protocol: as §2

ALOMY = experiment: A. Herbicidal pre-emergence action on harmful plants (Tables A); format: in vivo, Alopecurus myosuroides
Summary of the method: as §1

MATIN [9] = experiment: B. Herbicidal post-emergence action on harmful plants (Tables B); format: in vivo, Matricaria inodora; conditions: application rate 1280 g/ha; Table B4a
Protocol: as §2

DIGSA [10] = experiment: as above; format: in vivo, Digitaria sanguinalis; conditions: application rate 1280 g/ha; Table B12a
Protocol: as §2

[11] = application rate 80 g/ha, Table A7c
[12] = application rate 320 g/ha, Table A7b
[13] = application rate 1280 g/ha, visual grading after ca. 3 weeks vs untreated controls, 100% = plants have died off, 0% = as control plants
[14] = application rate 320 g/ha, Table A12b
[15] = application rate 1280 g/ha, Table A12a
[16] = application rate 1280 g/ha, Table A9a

| Compound | post-emergence activity against POAAN (POAAN [1]) | pre-emergence activity against ECHCG (ECHCG [2]; application rate 320 g/ha) | pre-emergence activity against ECHCG (ECHCG [2]; application rate 1280 g/ha) | pre-emergence activity against STEME (STEME; application rate 320 g/ha) | pre-emergence activity against STEME (STEME; application rate 1280 g/ha) | pre-emergence activity against LOLRI (LOLRI; application rate 1280 g/ha) | pre-emergence activity against POAAN (POAAN [3]; [11]) | pre-emergence activity against POAAN (POAAN [3]; [12]) | pre-emergence activity against POAAN (POAAN [3]; [13]) | pre-emergence activity against MATIN (MATIN [4]; application rate 320 g/ha) | pre-emergence activity against MATIN (MATIN [4]; application rate 1280 g/ha) | pre-emergence activity against DIGSA (DIGSA [5]; [14]) | pre-emergence activity against DIGSA (DIGSA [5]; [15]) | pre-emergence activity against SETVI (SETVI [6]; application rate 320 g/ha) | pre-emergence activity against SETVI (SETVI [6]; application rate 1280 g/ha) | post-emergence activity against SETVI (SETVI [7]) | pre-emergence activity against ALOMY (ALOMY; [16]) | pre-emergence activity against LOLRI (LOLRI; application rate 320 g/ha) | post-emergence activity against MATIN (MATIN [9]) | further results |
| --- | --- | --- | --- | --- | --- | --- | --- | --- | --- | --- | --- | --- | --- | --- | --- | --- | --- | --- | --- | --- |
| COCc1nn(C)cc1C(=O)N1CCCC1C(O)c1ccccc1F (single isomer, unassigned) [Example I-054] | 90% | 90% | 100% | 90% | 90% | 90% | 90% | 90% | 100% | 90% | 90% | 90% | 100% | 90% | 90% | 90% |  |  |  |  |
| COCc1nn(C)cc1C(=O)N1CCCC1C(C)c1ccccc1F (stereo not shown) [Example I-021] | 90% |  | 100% |  |  | 100% |  | 100% | 100% |  | 90% | 90% | 100% | 100% | 100% | 90% | 90% | 100% | 90% | post-emergence activity against ECHCG (ECHCG [8]): 90% |
| COCc1nn(C)cc1C(=O)N1CCCC1Cc1cccc(F)c1F (single isomer, unassigned) [Example I-088] | 90% | 90% | 100% | 90% | 90% | 100% | 90% | 100% | 100% | 90% | 90% | 100% | 100% | 100% | 100% | 90% | 100% | 100% | 90% | pre-emergence activity against ECHCG (ECHCG [2]; application rate 80 g/ha): 90%; pre-emergence activity against STEME (STEME; application rate 80 g/ha): 90%; pre-emergence activity against ALOMY (ALOMY; application rate 320 g/ha, Table A9b): 90%; pre-emergence activity against LOLRI (LOLRI; application rate 80 g/ha): 90%; post-emergence activity against DIGSA (DIGSA [10]): 90%; pre-emergence activity against MATIN (MATIN [4]; application rate 80 g/ha): 90%; pre-emergence activity against DIGSA (DIGSA [5]; application rate 80 g/ha, Table A12c): 100%; pre-emergence activity against SETVI (SETVI [6]; application rate 80 g/ha): 90% |
